The results in this text go back to patent publication US8956656B2, “Production of small particles” (Nano Fiber Matrices B.V., priority 2003, dated 2015).

The structures appear in SMILES notation.

Common to all, as to assay type: physicochemical
Data set [1] is described as follows: Gel test of gelators. As to conditions: 3 mg/mL in H2O. The protocol: Gel test: 0.3 mg/mL in H2O or PBS: clear gel; 0.5 mg/mL in H2O/DMSO (19:1): clear gel; 0.6 mg/mL in H2O/EtOH (19:1): clear gel; 25 mg/ml in EtOH: gel.
Gel test: 3 mg/mL in H2O: gel.
Gel test: 1.0 mg/mL in H2O: gel; acetone 7.0 mg/mL: clear gel.
Gel test: 3 mg/mL in H2O: clear gel.
Gel test: 3.0 mg/mL in H2O: gel

Data set [2] can be described thus: Stability in time of pyrene particles in a gel (TEM). The protocol: To determine the stability in time of pyrene particles in a gel, samples were prepared as in Example 3 and examined with TEM after 7 days, 18 days, 1 month and 2 months. As reference, samples containing only pyrene in DMSO/H2O (100 μL/900 μL) were also prepared. Moreover, to determine the effect of the gelator in solution, i.e. not of the gel, samples containing 4 mg (6.0×10^−3 mmol) of cHexAm(PheAQ)(CH2CH2OCH2CH2OH)2 gelator, 1.22 mg (6.0×10^−3 mmol) of pyrene, 100 μL of DMSO and 900 μL of 1N HCl were prepared. The presence of HCl causes the gelator to dissolve and therefore the sample remains a solution. All samples were kept at room temperature, in the dark. FIG. 1: after 7 days only very few particles, 37-185 nm, are present in the sample; after 18 days more particles, 30-190 nm, can be observed; after 1 month also some crystals, ˜150 nm, can be observed; after 2 months more crystals with sizes ranging from 80 to 200 nm are present. FIG. 2: after 7 days crystals, 0.2-3 μm, can be observed; after 18 days more of such crystals can be observed; after 1 month also larger crystals, 6 μm, can be seen; after 2 months more of such crystals can be observed. FIG. 3: after 7 days, 18 days or 1 month crystals, 0.4 to 9 μm, are present; after 2 months crystals, 2-12 μm, can be observed.

Data set [3] in a line: Optical microscopy of gels and reference solutions. How it is done: Furosemide, 5 mg, (15×10^−3 mmol), together with 12.5 mg (20×10^−3 mmol) of cHexAm(PheAmBn)(CH2CH2OCH2CH2OH)2 (A), or 12.9 mg (20×10^−3 mmol) of cHexAm(PheAmPhOMe)(CH2CH2OCH2CH2OH)2 (B), or 18.4 mg (20×10^−3 mmol) of cHexAmPheOCH2CH2OCH2CH2OH(C), were dissolved in 50 μL of propylene glycol, 50 μL of PEG400, and 900 μL of water by heating until a clear solution was obtained. As reference, a sample without gelator was prepared (D).
Danazol, 1 mg, (3×10^−3 mmol), together with 3.9 mg (6×10^−3 mmol) of cHexAm(PheAmAQ)(CH2CH2OCH2CH2OH)2 (A), or 5.4 mg (6×10^−3 mmol) of cHexAmPheOCH2CH2OCH2CH2OH (B), were dissolved in 50 μL of DMSO and 950 μL of distilled water by heating until a clear solution was obtained. As reference, a sample without gelator was prepared (C).
Cyclosporin A, 2.5 mg, (2.1×10^−3 mmol), together with 6.3 mg (10×10^−3 mmol) of cHexAm(PheAmBn)(CH2CH2OCH2CH2OH)2 (A) or 9.2 mg (10×10^−3 mmol) of cHexAmPheOCH2CH2OCH2CH2OH (B), were dissolved in 25 μL of propylene glycol, 25 μL of PEG400, and 450 μL of distilled water by heating until a clear solution was obtained. As reference, a sample without gelator was prepared (C).

Data set [4] in a line: TEM analysis of particle size in gel or freeze-dried powder. How it is done:
To a solution containing 4.6 mg (7.6×10^−3 mmol) of cHexAmMetOH gelator and 1.3 mg (3.8×10^−3 mmol) of danazol in 100 μL of DMSO, 900 μL of distilled water were quickly added. […] In a reference sample consisting only of danazol in 100 μL of DMSO and 900 μL of distilled water, rod-shaped danazol particles are 0.5-10 μm wide and 15-53 μm long.
To a solution containing 7 mg (7.6×10^−3 mmol) of cHexAmPheOCH2CH2OCH2CH2OH gelator and 1.3 mg (3.8×10^−3 mmol) of danazol in 100 μL of DMSO, 900 μL of distilled water were quickly added. […] In a reference sample consisting only of danazol in 100 μL of DMSO and 900 μL of distilled water, rod-shaped danazol particles are 0.5-10 μm wide and 15-53 μm long.
Example 6 was repeated but with an increased molar ratio of gelator to danazol, of 5:1.
To a solution containing 1.96 mg (2.9×10^−3 mmol) of cHexAm(PheAQ)(CH2CH2OCH2CH2OH)2 gelator and 1.0 mg (2.9×10^−3 mmol) of danazol in 50 μL of DMSO, 950 μL of distilled water were quickly added.
In a reference sample consisting only of danazol in 100 μL of DMSO to which 900 μL of distilled water was added, rod-shaped danazol particles were formed, which were 0.5-10 μm wide and 15-53 μm long.
Example 8 was repeated with an increased molar ratio of gelator to danazol (from 1:1 to 2:1).
Freeze-drying of a gel containing cHexAmPheOCH2CH2OCH2CH2OH and danazol in a 5:1 molar ratio, in DMSO/water mixture (50 μL/950 μL) yielded a dry powder of gelator and danazol.
Freeze-drying of a gel containing cHexAm(PheAQ)(CH2CH2O CH2CH2OH)2 and danazol in a 5:1 molar ratio, in DMSO/water (50 μL/950 μL) yielded a dry powder of gelator and danazol. […]

[5] abbreviates: FIG. 6 (b): gel of cHexAmPheOCH2CH2OCH2CH2OH, DMSO/water.
Setting [6] is: gel of cHexAm(PheAQ)(CH2CH2OCH2CH2OH)2, 1:1 molar.
Where [7] appears, read: gel of cHexAm(PheAQ)(CH2CH2OCH2CH2OH)2, gelator:danazol 2:1.
The mark [8] stands for this setting: gel of cHexAm(PheAQ)(CH2CH2OCH2CH2OH)2, gelator:danazol 5:1.
The mark [9] stands for this setting: gel of cHexAmPheOCH2CH2OCH2CH2OH, 2:1 molar.
Setting [10] is: gel of cHexAmPheOCH2CH2OCH2CH2OH, gelator:danazol 5:1.
Setting [11] is: reference sample, only danazol in 100 μL DMSO and 900 μL water.

Turning to `O=C(O)[C@@H]1C[C@H](C(=O)O)C[C@H](C(=O)N[C@@H](Cc2ccccc2)C(=O)NCc2ccccc2)C1` [cHex(AmPheAmBn)(COOH)2], in data set [1], the Gel test result is given as “gel”.

Take `COc1ccc(NC(=O)[C@H](Cc2ccccc2)NC(=O)[C@@H]2C[C@H](C(=O)O)C[C@H](C(=O)O)C2)cc1` [cHex(AmPheAmPhOMe)(COOH)2]: the Gel test entry in data set [1] was “clear gel”.

For the compound `c1cc2ccc3cccc4ccc(c1)c2c34` [pyrene], the “size of pyrene particles” value in data set [2] (gel of cHexAm(PheAQ)(CH2CH2OCH2CH2OH)2, DMSO/H2O, room temperature, dark, after 7 days (FIG. 1)) is on record as 37-185 nm; in data set [2] (gel of cHexAm(PheAQ)(CH2CH2OCH2CH2OH)2, after 18 days (FIG. 1)), 30-190 nm. For the same compound, the “size of pyrene crystals” value in data set [2] (gel of cHexAm(PheAQ)(CH2CH2OCH2CH2OH)2, after 1 month (FIG. 1)) is recorded as around 150 nm; in data set [2] (gelator in solution, DMSO/1N HCl, after 7 days (FIG. 2)), 0.2-3 μm; in data set [2] (reference, only pyrene in DMSO/H2O, after 2 months (FIG. 3)) it was 2-12 μm. For the same compound, the “size of larger pyrene crystals” value in data set [2] (gelator in solution, DMSO/1N HCl, after 1 month (FIG. 2)) is recorded as 6 μm.

For `NS(=O)(=O)c1cc(C(=O)O)c(NCc2ccco2)cc1Cl` [furosemide], the “butterfly-shaped crystals (long axis)” value in data set [3] (FIG. 5 (a): gel of cHexAm(PheAmBn)(CH2CH2OCH2CH2OH)2, PG/PEG400/water) is on record as around 25 μm; in data set [3] (FIG. 5 (b): gel of cHexAm(PheAmPhOMe)(CH2CH2OCH2CH2OH)2, PG/PEG400/water) it was around 25 μm. In addition, the globular crystals in data set [3] (FIG. 5 (c): gel of cHexAmPheOCH2CH2OCH2CH2OH, PG/PEG400/water) is around 25 μm. Moreover, the “rod-shaped crystals (long axis)” value in data set [3] (FIG. 5 (d): reference without gelator, PG/PEG400/water) is recorded as 25-250 μm.

Turning to `C#C[C@]1(O)CC[C@H]2[C@@H]3CCC4=Cc5oncc5C[C@]4(C)[C@H]3CC[C@@]21C` [danazol], the amorphous globular particles is recorded as below 2 μm in data set [3] (FIG. 6 (a): gel of cHexAm(PheAmAQ)(CH2CH2OCH2CH2OH)2, DMSO/water) and below 2 μm in data set [3] (setting [5]). Besides, the “some needle-shaped crystals (long axis)” value in data set [3] (setting [5]) is given as 25-50 μm. Further, the rod-shaped crystals in data set [3] (FIG. 6 (c): reference without gelator, DMSO/water) is 20-120 μm. Further, the “average size of danazol particles” value is given as 14-70 nm in data set [4] (freeze-dried powder of gel of cHexAm(PheAQ)(CH2CH2O CH2CH2OH)2, 5:1, DMSO/water 50/950 μL); 20 nm in data set [4] (freeze-dried powder of gel of cHexAmPheOCH2CH2OCH2CH2OH, 5:1, DMSO/water 50/950 μL); 140-700 nm in data set [4] (gel of cHexAm(PheAQ)(CH2CH2OCH2CH2OH)2, 1:1 molar, DMSO/water 50/950 μL); 28 nm in data set [4] (setting [7]); 14 nm in data set [4] (setting [8]); 20 nm in data set [4] (setting [10]). Also, the “width of very few rod-shaped danazol particles” value in data set [4] (freeze-dried powder of gel of cHexAmPheOCH2CH2OCH2CH2OH, 5:1) is given as 500-900 nm. For the same compound, in data set [4] (setting [6]), the “length of some rod-shaped danazol particles” value amounted to 9 μm. Also, in data set [4] (setting [6]), the “width of some rod-shaped danazol particles” value was found to be 0.7 μm. In data set [4] (setting [7]), the “size of very few danazol particles” value is reported as 10 μm. In addition, the results for the “size of some danazol particles” value in data set [4] (setting [8]) and in data set [4] (setting [10]) were 400 nm and “approximately 200 nm”, respectively. Also, the “length of rod-shaped danazol particles” value is 1-10 μm in data set [4] (gel of cHexAmMetOH, 2:1 molar, DMSO/water 100/900 μL); 0.6-6 μm in data set [4] (setting [9]); 15-53 μm in data set [4] (setting [11]). Moreover, the “width of rod-shaped danazol particles” value in data set [4] (setting [9]) is 0.2-0.6 μm; in data set [4] (setting [11]), 0.5-10 μm.
